# Laboratory results published in patent publication US20250340552A1, “COMPOUNDS, COMPOSITIONS AND METHODS OF TREATING DISORDERS” (HOTSPOT THERAPEUTICS, INC., priority 2022, published 2025).
# Like-named read-outs stand apart in the source and are kept apart here.
# Target: T1, Cbl-B (Homo sapiens, UniProt Q13191)
# T1 construct: MSD-Based Assay for Degradation of Cbl-B in THP-1 Cells; endogenous in cells; host or cells: THP-1 (title) / Jurkat (protocol text)
# Assay: MSD-based assay for degradation of Cbl-B in THP-1 cells
# Format: cell-based
# Method: MSD-Based Assay for Degradation of Cbl-B in THP-1 Cells
# Assay plates were then shaken at 600 rpm for 5 minutes, followed by incubation for 24 hours in the 37° C. TC incubator. […] Cell debris was then spun down at maximum speed (about 3200 g) for 30 min and lysates frozen in the −80° C. fridge. Meanwhile, MSD plates (L15XA-3) were coated overnight at 4° C. with 1 ug/mL capture antibody (Anti-Cbl-B antibody, 246C5a and Mouse mAB, ab54362). […] Blocking buffer was 3% Blocker A (MSD, R93BA-4) in TBST. Plates were washed 3× with 150 ul/well of 1×TBST and sample lysates (70 ul/well) then added, followed by shaking for 1 hr at RT, 600 rpm. […] Plates were again washed 3× with 150 ul/well of 1×TBST, followed by addition of Secondary Detection antibody, SULFO-TAG anti-species antibody (Anti Rabbit Antibody (R32AB-5) MSD, R32AB-1) at a final concentration of 1 ug/ml and 25 uL/well, followed by shaking for 1 hr at RT, 600 rpm. Plates were again washed 3× with 150 ul/well of 1×TBST, followed by addition of 1×MSD reading buffer (MSD, R92TC-2), 150 ul/well, diluted from 4× with water.
# Compound Dmax were binned into A through D as follows: A indicates >70%, B indicates 50-70%, C indicates 30-50%, D indicates <30%.
# [1] = Cbl-B degradation, Jurkat cells seeded (heading: THP-1 cells), 24 hours incubation, MSD readout
# [2] = Cbl-B degradation, Jurkat cells seeded (heading: THP-1 cells), 24 hours incubation, MSD readout, read-out: Dmax
# T1 sequence (Q13191 whole entry): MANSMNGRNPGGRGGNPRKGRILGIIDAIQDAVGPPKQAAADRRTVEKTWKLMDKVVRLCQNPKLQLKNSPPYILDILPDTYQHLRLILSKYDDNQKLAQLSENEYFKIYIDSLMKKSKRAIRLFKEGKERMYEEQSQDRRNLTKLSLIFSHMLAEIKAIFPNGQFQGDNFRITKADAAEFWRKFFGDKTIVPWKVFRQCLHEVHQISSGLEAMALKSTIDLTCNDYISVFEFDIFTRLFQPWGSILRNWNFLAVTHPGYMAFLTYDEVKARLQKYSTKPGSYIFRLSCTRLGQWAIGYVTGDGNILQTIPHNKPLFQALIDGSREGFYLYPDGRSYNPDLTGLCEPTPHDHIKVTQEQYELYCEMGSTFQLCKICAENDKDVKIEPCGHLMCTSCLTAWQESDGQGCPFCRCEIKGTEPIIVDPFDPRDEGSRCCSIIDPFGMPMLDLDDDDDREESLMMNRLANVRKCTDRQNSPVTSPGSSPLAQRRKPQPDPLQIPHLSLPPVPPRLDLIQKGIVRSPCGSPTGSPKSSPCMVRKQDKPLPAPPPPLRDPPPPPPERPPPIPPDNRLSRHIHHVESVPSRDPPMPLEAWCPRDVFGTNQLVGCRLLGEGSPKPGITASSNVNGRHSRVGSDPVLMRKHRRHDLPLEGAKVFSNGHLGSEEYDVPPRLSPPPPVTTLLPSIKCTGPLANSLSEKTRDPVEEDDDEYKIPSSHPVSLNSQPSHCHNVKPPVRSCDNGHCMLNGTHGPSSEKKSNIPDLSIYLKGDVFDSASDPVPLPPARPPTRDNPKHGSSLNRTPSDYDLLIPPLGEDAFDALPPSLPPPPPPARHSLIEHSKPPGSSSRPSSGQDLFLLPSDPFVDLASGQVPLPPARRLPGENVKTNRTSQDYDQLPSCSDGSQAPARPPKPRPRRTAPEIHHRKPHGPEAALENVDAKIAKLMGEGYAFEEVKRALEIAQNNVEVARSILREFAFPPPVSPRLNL
SMILES,DC50 [1] [nM],Dmax [2] [%],Dmax (THP-1) [%]
"Cn1cnnc1[C@@H](c1cccc(-n2cc3c(C(F)(F)F)cc(CN4CCC[C@H](OCCc5ccc(CN6CCN(c7ccc8c(c7)CN([C@H]7CCC(=O)NC7=O)C8=O)CC6)cc5)C4)cn3c2=O)c1)C1CCC1 (single isomer, unassigned) [Compound 128]",< 30,50 to 70,
"Cn1cnnc1[C@@H](c1cccc(-n2cc3c(C(F)(F)F)cc(CN4CCN(C(=O)CN5CCC(CN6CCN(c7ccc8c(c7)CN([C@H]7CCC(=O)NC7=O)C8=O)CC6)CC5)CC4)cn3c2=O)c1)C1CCC1 (single isomer, unassigned) [Compound 130]",30 to 300,50 to 70,
"Cn1cnnc1CC1(c2cccc(-n3cc4c(C(F)(F)F)cc(CN5CCN(C(=O)CN6CCC(CN7CCN(c8ccc9c(c8)CN([C@@H]8CCC(=O)NC8=O)C9=O)CC7)CC6)CC5)cn4c3=O)c2)COC1 (single isomer, unassigned) [Compound 131]",> 10000,30 to 50,
"Cn1cnnc1CC1(c2cccc(-n3cc4c(C(F)(F)F)cc(CN5CCN(C(=O)CN6CCC(CN7CCN(c8ccc9c(c8)CN([C@H]8CCC(=O)NC8=O)C9=O)CC7)CC6)CC5)cn4c3=O)c2)COC1 (single isomer, unassigned) [Compound 132]",< 30,50 to 70,
"Cn1cnnc1CC1(c2cccc(-n3cc4c(C(F)(F)F)cc(CN5CCN(CC(=O)N6CCC(CN7CCN(c8ccc9c(c8)CN([C@@H]8CCC(=O)NC8=O)C9=O)CC7)CC6)CC5)cn4c3=O)c2)COC1 (single isomer, unassigned) [Compound 133]",30 to 300,> 70,
"Cn1cnnc1CC1(c2cccc(-n3cc4c(C(F)(F)F)cc(CN5CCN(CC(=O)N6CCC(CN7CCN(c8ccc9c(c8)CN([C@H]8CCC(=O)NC8=O)C9=O)CC7)CC6)CC5)cn4c3=O)c2)COC1 (single isomer, unassigned) [Compound 134]",< 30,> 70,
"CN(CCN(C)C(=O)c1ccc(N2CCN(c3ccc4c(c3)CN([C@@H]3CCC(=O)NC3=O)C4=O)CC2)cc1)Cc1cc(C(F)(F)F)c2cn(-c3cccc([C@H](c4nncn4C)C4CCC4)c3)c(=O)n2c1 (single isomer, unassigned) [Compound 139]",300 to 1000,,
"CN(CCN(C)C(=O)c1ccc(N2CCN(c3ccc4c(c3)CN([C@H]3CCC(=O)NC3=O)C4=O)CC2)cc1)Cc1cc(C(F)(F)F)c2cn(-c3cccc([C@H](c4nncn4C)C4CCC4)c3)c(=O)n2c1 (single isomer, unassigned) [Compound 140]",30 to 300,,
"CN(CCN(C)C(=O)c1cc(C(F)(F)F)c2cn(-c3cccc([C@H](c4nncn4C)C4CCC4)c3)c(=O)n2c1)C(=O)c1ccc(N2CCN(c3ccc4c(c3)CN([C@@H]3CCC(=O)NC3=O)C4=O)CC2)cc1 (single isomer, unassigned) [Compound 141]",> 10000,< 30,
"CN(CCN(C)C(=O)c1cc(C(F)(F)F)c2cn(-c3cccc([C@H](c4nncn4C)C4CCC4)c3)c(=O)n2c1)C(=O)c1ccc(N2CCN(c3ccc4c(c3)CN([C@H]3CCC(=O)NC3=O)C4=O)CC2)cc1 (single isomer, unassigned) [Compound 142]",> 10000,30 to 50,
"Cn1cnnc1[C@@H](c1cccc(-n2cc3c(C(F)(F)F)cc(CN4CCC[C@@H](OCCc5ccc(CN6CCN(c7ccc8c(c7)CN([C@@H]7CCC(=O)NC7=O)C8=O)CC6)cc5)C4)cn3c2=O)c1)C1CCC1 (single isomer, unassigned) [Compound 143]",300 to 1000,30 to 50,
"Cn1cnnc1[C@@H](c1cccc(-n2cc3c(C(F)(F)F)cc(CN4CCC[C@@H](OCCc5ccc(CN6CCN(c7ccc8c(c7)CN([C@H]7CCC(=O)NC7=O)C8=O)CC6)cc5)C4)cn3c2=O)c1)C1CCC1 (single isomer, unassigned) [Compound 144]",< 30,50 to 70,
"CN(CCOC1CCN(Cc2cc(C(F)(F)F)c3cn(-c4cccc([C@H](c5nncn5C)C5CCC5)c4)c(=O)n3c2)CC1)C(=O)c1ccc(N2C3CC2CN(c2ccc4c(c2)CN([C@@H]2CCC(=O)NC2=O)C4=O)C3)cc1 (single isomer, unassigned) [Compound 145]",> 10000,,30 to 50
"CN(CCOC1CCN(Cc2cc(C(F)(F)F)c3cn(-c4cccc([C@H](c5nncn5C)C5CCC5)c4)c(=O)n3c2)CC1)C(=O)c1ccc(N2C3CC2CN(c2ccc4c(c2)CN([C@H]2CCC(=O)NC2=O)C4=O)C3)cc1 (single isomer, unassigned) [Compound 146]",> 10000,< 30,
"CN(CCOCc1cc(C(F)(F)F)c2cn(-c3cccc([C@H](c4nncn4C)C4CCC4)c3)c(=O)n2c1)C(=O)c1ccc(N2CCN(c3ccc4c(c3)CN([C@@H]3CCC(=O)NC3=O)C4=O)CC2)cc1 (single isomer, unassigned) [Compound 147]",> 10000,< 30,
"CN(CCOCc1cc(C(F)(F)F)c2cn(-c3cccc([C@H](c4nncn4C)C4CCC4)c3)c(=O)n2c1)C(=O)c1ccc(N2CCN(c3ccc4c(c3)CN([C@H]3CCC(=O)NC3=O)C4=O)CC2)cc1 (single isomer, unassigned) [Compound 148]",30 to 300,30 to 50,
"Cn1cnnc1[C@@H](c1cccc(-n2cc3c(C(F)(F)F)cc(CN4CCC(OCc5cccc(C(=O)N6CCN(c7ccc8c(c7)CN([C@@H]7CCC(=O)NC7=O)C8=O)CC6)c5)CC4)cn3c2=O)c1)C1CCC1 (single isomer, unassigned) [Compound 153]",> 10000,< 30,
"Cn1cnnc1[C@@H](c1cccc(-n2cc3c(C(F)(F)F)cc(CN4CCC(OCc5cccc(C(=O)N6CCN(c7ccc8c(c7)CN([C@H]7CCC(=O)NC7=O)C8=O)CC6)c5)CC4)cn3c2=O)c1)C1CCC1 (single isomer, unassigned) [Compound 154]",300 to 1000,30 to 50,
"Cn1cnnc1[C@@H](c1cccc(-n2cc3c(C(F)(F)F)cc(CN4CCC(OCc5ccc(N6CCN(c7ccc8c(c7)CN([C@@H]7CCC(=O)NC7=O)C8=O)CC6)cc5)CC4)cn3c2=O)c1)C1CCC1 (single isomer, unassigned) [Compound 155]",> 10000,< 30,
"Cn1cnnc1[C@@H](c1cccc(-n2cc3c(C(F)(F)F)cc(CN4CCC(OCc5ccc(N6CCN(c7ccc8c(c7)CN([C@H]7CCC(=O)NC7=O)C8=O)CC6)cc5)CC4)cn3c2=O)c1)C1CCC1 (single isomer, unassigned) [Compound 156]",< 30,50 to 70,
"Cn1cnnc1[C@@H](c1cccc(-n2cc3c(C(F)(F)F)cc(CN4CCC(OCc5ccc(C(=O)N6CCN(c7ccc8c(c7)CN([C@@H]7CCC(=O)NC7=O)C8=O)CC6)cc5)CC4)cn3c2=O)c1)C1CCC1 (single isomer, unassigned) [Compound 157]",> 10000,< 30,
"Cn1cnnc1[C@@H](c1cccc(-n2cc3c(C(F)(F)F)cc(CN4CCC(OCc5ccc(C(=O)N6CCN(c7ccc8c(c7)CN([C@H]7CCC(=O)NC7=O)C8=O)CC6)cc5)CC4)cn3c2=O)c1)C1CCC1 (single isomer, unassigned) [Compound 158]",< 30,> 70,
"Cn1cnnc1[C@@H](c1cccc(-n2cc3c(C(F)(F)F)cc(CN4CCC(C5CCN(C(=O)c6ccc(N7CCN(c8ccc9c(c8)CN([C@@H]8CCC(=O)NC8=O)C9=O)CC7)cc6)CC5)CC4)cn3c2=O)c1)C1CCC1 (single isomer, unassigned) [Compound 161]",300 to 1000,< 30,
"Cn1cnnc1[C@@H](c1cccc(-n2cc3c(C(F)(F)F)cc(CN4CCC(C5CCN(C(=O)c6ccc(N7CCN(c8ccc9c(c8)CN([C@H]8CCC(=O)NC8=O)C9=O)CC7)cc6)CC5)CC4)cn3c2=O)c1)C1CCC1 (single isomer, unassigned) [Compound 162]",< 30,> 70,
"Cn1cnnc1[C@@H](c1cccc(-n2cc3c(C(F)(F)F)cc(CN4CCC[C@@H](OC5CCN(C(=O)c6ccc(N7CCN(c8ccc9c(c8)CN([C@@H]8CCC(=O)NC8=O)C9=O)CC7)cc6)CC5)C4)cn3c2=O)c1)C1CCC1 (single isomer, unassigned) [Compound 171]",< 30,50 to 70,
"Cn1cnnc1[C@@H](c1cccc(-n2cc3c(C(F)(F)F)cc(CN4CCC[C@@H](OC5CCN(C(=O)c6ccc(N7CCN(c8ccc9c(c8)CN([C@H]8CCC(=O)NC8=O)C9=O)CC7)cc6)CC5)C4)cn3c2=O)c1)C1CCC1 (single isomer, unassigned) [Compound 172]",< 30,> 70,
"Cn1cnnc1[C@@H](c1cccc(-n2cc3c(C(F)(F)F)cc(CN4CCC(OCCOCc5ccc(CC6CCN(c7ccc8c(c7)CN([C@@H]7CCC(=O)NC7=O)C8=O)CC6)cc5)CC4)cn3c2=O)c1)C1CCC1 (single isomer, unassigned) [Compound 173]",1000 to 10000,,30 to 50
"Cn1cnnc1[C@@H](c1cccc(-n2cc3c(C(F)(F)F)cc(CN4CCC(OCCOCc5ccc(CC6CCN(c7ccc8c(c7)CN([C@H]7CCC(=O)NC7=O)C8=O)CC6)cc5)CC4)cn3c2=O)c1)C1CCC1 (single isomer, unassigned) [Compound 174]",< 30,> 70,
